Data: patent publication US20240109842A1, “ACRYLAMIDE COMPOUNDS” (OTSUKA PHARMACEUTICAL CO., LTD., priority 2019, published 2024)

Experiments:
[1] = test system: immortalized megakaryocyte cell line; experiment: Test Example 2: platelet production, shake culturing, with various aryl hydrocarbon receptor antagonists
[2] = test system: immortalized megakaryocyte cell line; experiment: Test Example 1: platelet production, shake culturing; assay type: cell-based; conditions: compound 10 μM added at Day 3; for fold induction at 10 µM: Platelet, 144 h, DMSO added at cell seeding (no AhR antagonist), platelets (CD41, CD42a, CD42b-positive) counted after 6 days, read-out: Amount of platelet production (vs. Control); for Amount of platelet production (vs. Control): aryl hydrocarbon receptor antagonist Compound A5 0.1 μM added at cell seeding, counted after 6 days
Method: The immortalized megakaryocyte cell line obtained according to the method described in WO 2016/204256 was washed twice with D-PBS(−) and then cultured in medium not containing doxycycline to terminate forced expression (cultured under conditions where gene expression is OFF). Shake culturing at 100 rpm was performed in the following medium after the cells were seeded in a 125-mL polycarbonate Erlenmeyer flask (Corning #431143) at 25 mL/flask and a seeding density of 1×10^5 cells/mL. Culturing conditions were 37° C. and 5% CO2. The medium was obtained by adding the following components to IMDM serving as the basal medium (concentrations indicate final concentrations). • FBS 15% • L-Glutamine 2 mM • ITS 100-fold dilution • MTG 450 μM • Ascorbic acid 50 μg/mL • SCF 50 ng/mL • TA-316 0.1 μg/mL • ADAM inhibitor 15 μM • ROCK inhibitor 0.5 μM […] After culturing for 6 days in total, the number of platelets was measured. The measurement method was as follows. The same operation was performed for control. At 6 days after initiation of the culturing under conditions where gene expression was OFF, a part of the culture supernatant was collected, and suspended with the following antibody and Flow-Count Fluorospheres (Beckman Coulter #7547053) to perform staining. • APC-labeled anti-CD41 antibody (BioLegend #303710) • eFluor 450-labeled anti-CD42a antibody (eBioscience #48-0428-42) • PE-labeled anti-CD42b antibody (BioLegend #303906) At 30 minutes after staining, number of platelets (CD41, CD42a and CD42b-positive cells) was counted by using FACSVerse (manufactured by BD Japan) with Flow-Count Fluorospheres. The number of platelets was given as a percentage of the control.

[3] = Platelet, 144 h, read-out: Amount of platelet production (vs. Control)
[4] = comparative examples: only an aryl hydrocarbon receptor antagonist, no acrylamide compound, A1 0.75 μM, A2 0.1 μM, A3 10 μM, A4 1 μM, A5 to A8 0.1 μM
[5] = with aryl hydrocarbon receptor antagonist Compound A2 0.1 μM, otherwise as Test Example 1

SMILES | fold induction at 10 µM [2] | Amount of platelet production (vs. Control) [2] | also measured
CC(C)n1cnc2c(NCCc3ccc(O)cc3)nc(-c3csc4ccccc34)nc21 [Compound A1, 4-[2-[[2-benzo[b]thien-3-yl-9-(1-methylethyl)-9H-purin-6-yl]amino]ethyl]phenol, reference compound] | – | – | fold induction at 0.75 µM [1, 3]: 1.5 to 6.5
Cc1cc(-c2ccc(CC(=O)Nc3ccc(-c4cccnc4)cc3)cc2)ccn1 [Compound A3, 4-(2-Methyl-4-pyridinyl)-N-[4-(3-pyridinyl)phenyl]-benzeneacetamide, reference compound] | – | – | fold induction at 10 µM [1, 3]: 1.5 to 6.5
Cc1ccccc1/N=N/c1ccc(NC(=O)c2ccnn2C)c(C)c1 [Compound A4, 1-Methyl-N-[2-methyl-4-[2-(2-methylphenyl)diazenyl]phenyl]-1H-pyrazole-5-carboxamide, reference compound] | – | – | fold induction at 1 µM [1, 3]: 1.5 to 6.5
CC1(C)COc2nc3c(NCCc4ccc(O)c(-c5cccc(C#N)c5)c4)nc(-c4cncc(F)c4)nc3n21 [Compound A5, 3-[5-[2-[[2-(5-Fluoropyridin-3-yl)-8,8-dimethyl-7H-purino[8,9-b][1,3]oxazol-4-yl]amino]ethyl]-2-hydroxyphenyl]benzonitrile, reference compound] | – | – | Amount of platelet production (vs. Control) [1, 4]: + (the amount of platelets production increased by not less than 1.5 times and less than 6.5 times)
CC1(C)COc2nc3c(NCCc4ccc(O)c(-c5ccccc5F)c4)nc(-c4cncc(F)c4)nc3n21 [Compound A6, 2-(2-fluorophenyl)-4-[2-[[2-(5-fluoropyridin-3-yl)-8,8-dimethyl-7H-purino[8,9-b][1,3]oxazol-4-yl]amino]ethyl]phenol, reference compound] | – | – | Amount of platelet production (vs. Control) [1, 4]: + (the amount of platelets production increased by not less than 1.5 times and less than 6.5 times)
CC1(C)COc2nc3c(NCCc4ccc(O)c(-c5cncc(F)c5)c4)nc(-c4cncc(F)c4)nc3n21 [Compound A7, 2-(5-fluoropyridin-3-yl)-4-[2-[[2-(5-fluoropyridin-3-yl)-8,8-dimethyl-7H-purino[8,9-b][1,3]oxazol-4-yl]amino]ethyl]phenol, reference compound] | – | – | Amount of platelet production (vs. Control) [1, 4]: + (the amount of platelets production increased by not less than 1.5 times and less than 6.5 times)
CC1(C)CSc2nc3c(NCCc4ccc(O)c(-c5ccccc5F)c4)nc(-c4cncc(F)c4)nc3n21 [Compound A8, 2-(2-fluorophenyl)-4-[2-[[2-(5-fluoropyridin-3-yl)-8,8-dimethyl-7H-purino[8,9-b][1,3]thiazol-4-yl]amino]ethyl]phenol, reference compound] | – | – | fold induction at 0.1 µM [1, 3]: 1.5 to 6.5
CCOc1ccccc1CCNC(=O)/C=C/n1cnc2c(OC)cccc21 [Example 38] | 1.5 to 6.5 | + (the amount of platelets production increased by not less than 1.5 times and less than 6.5 times) | –
COc1cccc2c1ccn2/C=C/C(=O)NCCc1ccccc1-c1ncccn1 [Example 39] | 1.5 to 6.5 | ++ (not less than 6.5 times) | –
COc1cccn2c(/C=C/C(=O)NCCc3ccccc3-c3ncccn3)cnc12 [Example 40] | 1.5 to 6.5 | ++ (not less than 6.5 times) | –
Cc1ccnc2c(/C=C/C(=O)NCCc3ccccc3-c3ncccn3)c[nH]c12 [Example 41] | 1.5 to 6.5 | ++ (not less than 6.5 times) | –
COc1cccc2c(/C=C/C(=O)NCCc3cccc4ccc(C)nc34)c[nH]c12 [Example 42] | 1.5 to 6.5 | ++ (not less than 6.5 times) | –
COC(=O)n1cc(/C=C/C(=O)NCCc2ccccc2-c2ccccc2)c2cccc(OC)c21 [Example 43] | 1.5 to 6.5 | ++ (not less than 6.5 times) | –
COc1cccc2c(/C=C/C(=O)NCCc3occc3-c3ccccc3)c[nH]c12 [Example 44] | 1.5 to 6.5 | ++ (not less than 6.5 times) | –
COc1cccc2c(/C=C/C(=O)NCCc3sccc3-c3ncccn3)c[nH]c12 [Example 45, (E)-3-(7-methoxy-1H-indol-3-yl)-N-[2-(3-pyrimidin-2-ylthiophen-2-yl)ethyl]prop-2-enamide] | 1.5 to 6.5 | ++ (not less than 6.5 times) | –
Cc1cccc2c(/C=C/C(=O)NCCc3ccccc3-c3ncccn3)c[nH]c12 [Example 46] | 1.5 to 6.5 | ++ (not less than 6.5 times) | –
O=C(/C=C/c1c[nH]c2ccccc12)NCCc1ccccc1-c1ncccn1 [Example 47, (E)-3-(1H-indol-3-yl)-N-[2-(2-pyrimidin-2-ylphenyl)ethyl]prop-2-enamide] | 1.5 to 6.5 | ++ (not less than 6.5 times) | –
O=C(/C=C/c1c[nH]c2c(Cl)cccc12)NCCc1ccccc1-c1ncccn1 [Example 48] | 1.5 to 6.5 | ++ (not less than 6.5 times) | –
COc1nccc2c(/C=C/C(=O)NCCc3ccccc3-c3ncccn3)c[nH]c12 [Example 49] | 1.5 to 6.5 | ++ (not less than 6.5 times) | –
COc1cccc2c(/C=C/C(=O)NCCc3ccccc3-c3ncc(F)cn3)c[nH]c12 [Example 51] | 1.5 to 6.5 | ++ (not less than 6.5 times) | –
COc1cccc2c(/C=C/C(=O)NCCc3ccccc3-c3ncc(C)cn3)c[nH]c12 [Example 52] | 1.5 to 6.5 | ++ (not less than 6.5 times) | –
COc1cccc2c(/C=C/C(=O)NCCc3ccccc3-c3ncccn3)cn(C)c12 [Example 53] | 1.5 to 6.5 | ++ (not less than 6.5 times) | –
COCCn1cc(/C=C/C(=O)NCCc2ccccc2-c2ncccn2)c2cccc(OC)c21 [Example 54] | 1.5 to 6.5 | ++ (not less than 6.5 times) | –
COC(=O)n1cc(/C=C/C(=O)NCCc2ccccc2-c2ncc(OC)cn2)c2cccc(OC)c21 [Example 55] | 1.5 to 6.5 | ++ (not less than 6.5 times) | –
COc1cnc(-c2ccccc2CCNC(=O)/C=C/c2c[nH]c3c(OC)cccc23)nc1 [Example 56] | 1.5 to 6.5 | ++ (not less than 6.5 times) | –
CCOc1ccccc1CCNC(=O)/C=C/c1c[nH]c2c(CC)cccc12 [Example 57] | 1.5 to 6.5 | ++ (not less than 6.5 times) | Amount of platelet production (vs. Control) [1, 5]: ++ (not less than 6.5 times)
CCOc1ccc(OC)cc1CCNC(=O)/C=C/c1c[nH]c2c(OC)cccc12 [Example 59] | 1.5 to 6.5 | ++ (not less than 6.5 times) | Amount of platelet production (vs. Control) [1, 5]: ++ (not less than 6.5 times)
CCOc1ccccc1CCNC(=O)/C=C/c1c[nH]c2c(C)cccc12 [Example 60] | 1.5 to 6.5 | ++ (not less than 6.5 times) | Amount of platelet production (vs. Control) [1, 5]: ++ (not less than 6.5 times)
CCOc1ccccc1CCNC(=O)/C=C/c1c[nH]c2c(OC)cccc12 [Example 61] | 1.5 to 6.5 | ++ (not less than 6.5 times) | Amount of platelet production (vs. Control) ([1]; with aryl hydrocarbon receptor antagonist Compound A1 0.75 μM, otherwise as Test Example 1): ++ (not less than 6.5 times); Amount of platelet production (vs. Control) [1, 5]: ++ (not less than 6.5 times); Amount of platelet production (vs. Control) ([1]; with aryl hydrocarbon receptor antagonist Compound A3 10 μM, otherwise as Test Example 1): ++ (not less than 6.5 times); Amount of platelet production (vs. Control) ([1]; with aryl hydrocarbon receptor antagonist Compound A4 1 μM, otherwise as Test Example 1): ++ (not less than 6.5 times); Amount of platelet production (vs. Control) ([1]; with aryl hydrocarbon receptor antagonist Compound A7 0.1 μM, otherwise as Test Example 1): ++ (not less than 6.5 times); Amount of platelet production (vs. Control) ([1]; with aryl hydrocarbon receptor antagonist Compound A8 0.1 μM, otherwise as Test Example 1): ++ (not less than 6.5 times)
